# Experimental data taken from US20030229112A1, “Combination therapy for cancer” (priority 2000, published 2003).
# Key:
# [1] = irinotecan, SN-38 and APC, following administration
# [2] = test system: Rh18 rhabdomyosarcoma; assay: Combination study against Rh18 rhabdomyosarcoma xenografts; assay type: in vivo, mice
# [3] = test system: NB-SD neuroblastoma xenografts; assay: Combination study against NB-SD neuroblastoma xenografts; assay type: in vivo, mice
# [4] = in vivo; details: mouse
# [5] = same total dose given over 10 days versus over 5 days or as a single administration; cited from earlier work
# [6] = test system: NB-1771 tumors; assay: Combination study against NB-1771 xenografts; assay type: in vivo, mice
# Text: It has been have shown that the antitumor activity of camptothecins is highly schedule dependent. […] To determine whether there was similar schedule-dependency for temozolomide, the antitumor activity of this agent was examined when given daily for 5 days, 2×5 days per 21 day cycle or 3×5 days per 28 day cycle. See, as incorporated by reference, Houghton, P. J. et al., Clinical Cancer Res. Vol. 6, 4110-4118, October 2000. The total dose per cycle was constant. […] In this experiment mice received a cumulative dose of 210 mg/kg per cycle. Mice received 3 cycles of treatment (total cumulative dose was 630 mg/kg).
# [7] = test system: glioblastoma line, SJ-GBM2
# Experimental: To determine whether there was similar schedule-dependency for temozolomide, the antitumor activity of this agent was examined when given daily for 5 days, 2×5 days per 21 day cycle or 3×5 days per 28 day cycle. […] The total dose per cycle was constant. […] Mice received 3 cycles of treatment (total cumulative dose was 630 mg/kg).
# [8] = test system: NB-1382 xenografts; assay: Schedule dependence of temozolomide against NB-1382 xenografts; assay type: in vivo, mice
# Experimental: It has been have shown that the antitumor activity of camptothecins is highly schedule dependent. […] The total dose per cycle was constant. […] In this experiment mice received a cumulative dose of 210 mg/kg per cycle.
# [9] = test system: advanced melanoma; details: cited from earlier work
# [10] = test system: five other xenograft lines; assay: Schedule dependence of temozolomide in five other xenograft lines; assay type: in vivo, mice
# Experimental: To determine whether there was similar schedule-dependency for temozolomide, the antitumor activity of this agent was examined when given daily for 5 days, 2×5 days per 21 day cycle or 3×5 days per 28 day cycle. […] The total dose per cycle was constant. […] In this experiment mice received a cumulative dose of 210 mg/kg per cycle. Mice received 3 cycles of treatment (total cumulative dose was 630 mg/kg).
smiles,measurement,setting,value
CCc1c2c(nc3ccc(OC(=O)N4CCC(NCCCCC(=O)O)CC4)cc13)-c1cc3c(c(=O)n1C2)COC(=O)[C@]3(O)CC [APC],apparent tmax,[1],60 min
CCc1c2c(nc3ccc(O)cc13)-c1cc3c(c(=O)n1C2)COC(=O)[C@]3(O)CC [SN-38],apparent tmax,[1],15 min
"CCc1c2c(nc3ccc(OC(=O)N4CCC(N5CCCCC5)CC4)cc13)-c1cc3c(c(=O)n1C2)COC(=O)[C@]3(O)CC [irinotecan, 7-ethyl-10-(4-[1-piperidino)-1-piperidino]-carbonyloxy-camptothecin]",tumor response,[2]; CPT-11 alone at the doses used in the combination,few CRs
same,tumor response,[3]; CPT-11 alone at 0.4 mg/kg,tumors progressed
same,AUC(0-inf),[4],1820 ng·h/mL
same,Cmax,[4],1240 ng/mL
same,Tmax,[4],30 min
same,antitumor activity by schedule,[5],significantly more active
same,tumor response,[6]; CPT-11 alone at 0.61 mg/kg,an occasional CR
same,tumor status at week 12,[6]; CPT-11 alone at 1.25 or 0.61 mg/kg,all tumors had progressed
"Cn1nnc2c(C(N)=O)ncn2c1=O [temozolomide, 3,4-dihydro-3-methyl-4-oxoimidazo-[5,1-d]1,2,3,4-tetrazin-8-carboximide]",sensitivity of xenograft to single agent,[2]; temozolomide as a single agent,poorly sensitive
same,overall effect of treatment,"[7]; temozolomide alone at 42 mg/kg, tumor volume at end of treatment similar to initiation",stasis
same,tumor response,"[7]; temozolomide alone at 66 or 42 mg/kg, during the 8 weeks of treatment","some PRs, and an occasional CR"
same,toxicity,"[7]; temozolomide alone, higher dose level (66 mg/kg)",lethal during cycle 3 of treatment
same,tumor response,[3]; temozolomide alone at tolerated dose levels,little activity
same,AUC(0-inf),[4],47000 ng·h/mL
same,Cmax,[4],36000 ng/mL
same,Tmax,[4],30 min
same,tumor response,"[8]; lower doses given over more protracted periods (2x5 days per 21 day cycle, 3x5 days per 28 day cycle), same total dose per cycle",progressively less effective
same,tumor response,"[8]; temozolomide given over 5 days, 42 mg/kg/dose, 210 mg/kg per cycle, 3 cycles","CRs were achieved in all mice, and were maintained at week 12"
same,"clinical responses, % of patients","[9]; patients having advanced melanoma, Newlands et al., Br. J Cancer 1992",17%
same,"clinical response, % of patients","[9]; patients with advanced melanoma, Journal of Clinical Oncology 1995",21%
same,sensitivity of tumors to single agent,[6]; temozolomide as a single agent,relatively sensitive
same,activity of most intensive schedule (daily for 5 consecutive days per cycle) compared to the other schedules,[10]; all experiments,either more active or equally active
same,schedule-dependent antitumor activity,[10]; five other xenograft lines (data not shown),Far less schedule-dependent antitumor activity
